Experiment [1] concerns S6RP serine-240/244 phosphorylation. Put plainly: In vitro phospho-S6 cellular assay (HEK293T/17). The format is cell-based. The note with it: Homo sapiens; HEK293T/17 cells, 2 hours, pS6RP Ser240/244; read-out: Inhibition values (IC50) pS6. The method, boiled down:
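HEK293T/17 cells in DMEM with 2% FCS were exposed to 8 compound concentrations (0.1% DMSO) for 2 h at 37 °C, then lysed. pS6RP Ser240/244 or pAkt Ser473 in the lysates was quantified by MSD sandwich electrochemiluminescence. IC50 was obtained by sigmoidal variable-slope nonlinear regression.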

Another experiment concerns the target T1, mTOR (Homo sapiens, UniProt P42345).
T1 construct: Jurkat cells were homogenized in a Potter S homogenizer in lysis buffer; endogenous in cells; host or cells: Jurkat, clone E6-1 (ATCC TIB-152) lysate
The experiment can be described thus: mTOR kinobeads assay (Jurkat cell lysate, dot blot detection). The note with it: read-out: Inhibition values (IC50) mTor. The experiment is classed as binding. Put shortly:
(§1)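 Jurkat lysate, 5 mg/ml protein, 3 h cold-room incubation with test compound (9-step 1:3 series) and immobilized-ligand affinity beads. Wash, SDS elution, dot blot with specific antibody, Odyssey infrared read. IC50 fitted per kinase.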

Experiment [2] has as its system Akt serine-473 phosphorylation. The experiment can be described thus: In vitro phospho-Akt cellular assay (HEK293T/17). The experiment is classed as cell-based. The note with it: Homo sapiens; HEK293T/17 cells, 2 hours, pAkt Ser 473; read-out: Inhibition values (IC50) pAkt. From the text: Activation of mTOR signaling results in phosphorylation of several downstream targets. In cells, mTOR exists in two different protein complexes. The mTOR Complex-1 (mTORC1) phosphorylates and activates S6 Kinase 1 (S6K1) and S6 Kinase 2 (S6K2) (also known as p70S6K) which then phosphorylate S6 Ribosomal Protein (S6RP) (also known as RPS6)3. S6RP is phosphorylated on serine 235, senile 236, serine 240 and serine 244 by both pS6K1 and pS6K2. The mTOR Complex-2 (mTORC2) phosphorylates AKT on serine 473 which activates the AKT signaling pathway.
The assay measures a test compound's inhibition of S6RP serine-240/244 phosphorylation and inhibition of Akt serine-473 phosphorylation in human embryonic kidney derived HEK293T/17 cells (ATCC CRL-11268).
The HEK293T/17 cell line is maintained in DMEM media (Invitrogen catalogue number 41965-039) supplemented with 10% FCS at 37° C. in a 5% CO2 humidified incubator. Cells are seeded in 96-well plates at 40,000 cells/well (pS6RP S240/244 assay) or 80,000 cells/well (pAkt 5473 assay) in 90 μl growth media (DMEM, 2% FCS). Plates are incubated for 1 hour in a humidified incubator to allow the cells to adhere. Cells are treated with 8 concentrations of test compounds or DMSO alone for controls (final DMSO concentration 0.1%) and incubated at 37° C. for 2 hours. Then 20 μl of 5× concentrated lysis buffer (750 mM NaCl, 100 mM Tris pH7.4, 5 mM ADTA, 5 mM EGTA, 5% Triton X-100) is added, plates are sealed and incubated for 15 minutes at 4° C. with gentle shaking After cell lysis, 25 μl cell lysate is transferred to a MesoScale plate coated with an antibody to pS6RP Ser240/244 (MesoScale Discovery K150DGD-3) or an antibody to pAkt Ser 473 (MesoScale Discovery K151DGD-3). Plates have been blocked before by incubation with 150 μl MesoScale Discovery Blocking Solution-A for 1 hour at room temperature followed by washing with 150 μl 1×Tris wash buffer per well. After the transfer of the cell lysate to the MSD plate, the pS6RP (or pAkt) protein is captured on the coated antibody by incubation at room temperature for 1 hour with gentle shaking. After the capture step the plate is washed three times with 150 μl of 1× Tris wash buffer per well. Then 25 μl detection antibody conjugated with a Sulfo-Tag is added and incubated for 1 hour at room temperature with gentle shaking. Subsequently the antibody solution is removed and the plate is washed 3 times with 150 μl 1×Tris wash buffer per well and 150 μl Read buffer is added. The plates are analysed on a MSD 2400 Plate Reader (MesoScale Discovery). Data analysis is performed using nonlinear regression for a sigmoidal dose-response with a variable slope.

The next experiment deals with T2, PI3K delta (PI3Kd) (Homo sapiens, UniProt O00329).
T2 construct: Jurkat cells were homogenized in a Potter S homogenizer in lysis buffer; endogenous in cells; host or cells: Jurkat, clone E6-1 (ATCC TIB-152) lysate
T2 sequence (O00329 whole entry): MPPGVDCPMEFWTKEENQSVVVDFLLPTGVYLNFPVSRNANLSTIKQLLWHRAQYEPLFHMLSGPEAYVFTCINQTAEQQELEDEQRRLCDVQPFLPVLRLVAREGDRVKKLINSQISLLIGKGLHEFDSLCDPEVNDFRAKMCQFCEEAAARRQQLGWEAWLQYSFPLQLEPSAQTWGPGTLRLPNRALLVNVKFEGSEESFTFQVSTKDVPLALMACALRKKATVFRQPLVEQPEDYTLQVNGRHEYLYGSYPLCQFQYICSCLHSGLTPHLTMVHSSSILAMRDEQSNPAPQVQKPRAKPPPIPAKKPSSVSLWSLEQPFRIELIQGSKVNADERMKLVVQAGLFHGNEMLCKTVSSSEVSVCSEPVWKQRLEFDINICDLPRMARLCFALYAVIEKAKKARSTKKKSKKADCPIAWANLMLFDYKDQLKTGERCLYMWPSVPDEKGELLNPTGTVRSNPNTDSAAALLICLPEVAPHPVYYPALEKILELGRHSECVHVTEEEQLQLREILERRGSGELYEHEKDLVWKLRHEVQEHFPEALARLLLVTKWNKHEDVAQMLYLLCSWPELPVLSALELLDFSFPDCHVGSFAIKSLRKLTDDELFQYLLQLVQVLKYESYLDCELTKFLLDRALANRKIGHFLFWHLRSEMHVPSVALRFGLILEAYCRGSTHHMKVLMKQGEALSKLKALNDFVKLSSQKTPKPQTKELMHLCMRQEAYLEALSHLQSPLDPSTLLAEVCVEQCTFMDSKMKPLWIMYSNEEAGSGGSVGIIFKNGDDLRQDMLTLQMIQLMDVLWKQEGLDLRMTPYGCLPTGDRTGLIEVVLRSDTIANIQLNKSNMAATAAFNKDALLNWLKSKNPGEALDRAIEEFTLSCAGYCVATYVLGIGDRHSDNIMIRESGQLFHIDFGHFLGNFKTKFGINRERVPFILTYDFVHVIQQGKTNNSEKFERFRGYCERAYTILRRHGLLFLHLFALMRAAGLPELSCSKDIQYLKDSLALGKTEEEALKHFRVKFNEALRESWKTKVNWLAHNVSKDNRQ
T2 sequence (P27986 whole entry partner): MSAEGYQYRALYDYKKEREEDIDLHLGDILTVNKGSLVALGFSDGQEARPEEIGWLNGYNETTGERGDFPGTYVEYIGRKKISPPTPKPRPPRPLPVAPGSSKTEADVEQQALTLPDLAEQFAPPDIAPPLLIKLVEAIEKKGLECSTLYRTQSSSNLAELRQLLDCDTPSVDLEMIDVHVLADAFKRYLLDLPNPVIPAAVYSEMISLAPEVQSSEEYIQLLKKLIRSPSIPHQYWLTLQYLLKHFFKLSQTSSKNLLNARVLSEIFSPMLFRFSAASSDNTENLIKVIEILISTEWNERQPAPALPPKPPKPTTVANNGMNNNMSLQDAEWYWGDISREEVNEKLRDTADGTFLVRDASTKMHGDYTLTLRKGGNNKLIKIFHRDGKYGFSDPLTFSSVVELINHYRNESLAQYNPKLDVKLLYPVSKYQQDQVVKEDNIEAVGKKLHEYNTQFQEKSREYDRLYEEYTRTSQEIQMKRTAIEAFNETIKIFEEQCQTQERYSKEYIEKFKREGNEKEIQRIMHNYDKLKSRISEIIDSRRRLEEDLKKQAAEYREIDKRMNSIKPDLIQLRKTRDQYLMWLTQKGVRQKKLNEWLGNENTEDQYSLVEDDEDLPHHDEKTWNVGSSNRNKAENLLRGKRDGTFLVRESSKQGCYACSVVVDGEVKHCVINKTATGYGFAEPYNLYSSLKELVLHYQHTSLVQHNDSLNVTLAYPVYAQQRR
Put plainly: kinobeads assay, PI3K delta. The experiment is classed as binding. The note with it: Jurkat cell lysate, read-out: Inhibition values (IC50) PI3Kd. Put shortly:
as §1

The target in a further experiment is T3, PI3K alpha (PI3Kα) (Homo sapiens, UniProt P42336).
T3 construct: Jurkat cells were homogenized in a Potter S homogenizer in lysis buffer; endogenous in cells; host or cells: Jurkat, clone E6-1 (ATCC TIB-152) lysate
T3 sequence (P42336 whole entry): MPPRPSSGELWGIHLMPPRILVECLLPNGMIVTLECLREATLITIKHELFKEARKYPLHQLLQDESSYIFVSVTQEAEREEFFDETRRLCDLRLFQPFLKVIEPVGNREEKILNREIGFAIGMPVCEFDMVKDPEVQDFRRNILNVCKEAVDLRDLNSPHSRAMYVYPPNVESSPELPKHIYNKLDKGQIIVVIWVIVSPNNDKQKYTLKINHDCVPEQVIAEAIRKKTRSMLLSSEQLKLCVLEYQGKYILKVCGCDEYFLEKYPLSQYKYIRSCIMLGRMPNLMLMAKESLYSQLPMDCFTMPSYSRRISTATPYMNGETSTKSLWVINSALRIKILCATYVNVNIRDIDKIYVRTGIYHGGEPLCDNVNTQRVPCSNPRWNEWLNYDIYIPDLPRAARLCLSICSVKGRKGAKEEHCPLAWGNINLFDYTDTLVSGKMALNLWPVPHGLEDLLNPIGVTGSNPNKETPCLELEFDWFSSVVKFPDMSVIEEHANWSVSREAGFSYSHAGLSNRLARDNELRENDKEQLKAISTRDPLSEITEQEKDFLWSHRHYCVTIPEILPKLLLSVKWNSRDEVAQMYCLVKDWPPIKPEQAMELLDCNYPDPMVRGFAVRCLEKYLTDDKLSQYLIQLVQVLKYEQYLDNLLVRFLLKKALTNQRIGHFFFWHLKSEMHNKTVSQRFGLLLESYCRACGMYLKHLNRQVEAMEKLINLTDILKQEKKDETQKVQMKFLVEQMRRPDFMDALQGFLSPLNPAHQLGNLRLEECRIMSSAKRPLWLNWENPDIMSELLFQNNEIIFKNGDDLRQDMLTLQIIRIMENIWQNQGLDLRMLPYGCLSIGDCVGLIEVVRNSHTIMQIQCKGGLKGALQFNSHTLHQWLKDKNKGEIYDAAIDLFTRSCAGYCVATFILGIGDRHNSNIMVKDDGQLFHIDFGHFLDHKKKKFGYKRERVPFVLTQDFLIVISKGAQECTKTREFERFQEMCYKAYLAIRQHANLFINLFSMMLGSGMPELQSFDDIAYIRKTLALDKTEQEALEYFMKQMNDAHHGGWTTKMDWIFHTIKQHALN
T3 sequence (P27986 whole entry partner): as the sequence (P27986 whole entry partner) above
Put plainly: kinobeads assay, PI3K alpha. The format is binding. Conditions: Jurkat cell lysate, read-out: Inhibition values (IC50) PI3Ka. The method, boiled down:
as §1

The next experiment deals with T4, PI3K gamma (PI3Kg) (Homo sapiens, UniProt P48736).
T4 construct: Jurkat cells were homogenized in a Potter S homogenizer in lysis buffer; endogenous in cells; host or cells: Jurkat, clone E6-1 (ATCC TIB-152) lysate
T4 sequence (P48736 whole entry): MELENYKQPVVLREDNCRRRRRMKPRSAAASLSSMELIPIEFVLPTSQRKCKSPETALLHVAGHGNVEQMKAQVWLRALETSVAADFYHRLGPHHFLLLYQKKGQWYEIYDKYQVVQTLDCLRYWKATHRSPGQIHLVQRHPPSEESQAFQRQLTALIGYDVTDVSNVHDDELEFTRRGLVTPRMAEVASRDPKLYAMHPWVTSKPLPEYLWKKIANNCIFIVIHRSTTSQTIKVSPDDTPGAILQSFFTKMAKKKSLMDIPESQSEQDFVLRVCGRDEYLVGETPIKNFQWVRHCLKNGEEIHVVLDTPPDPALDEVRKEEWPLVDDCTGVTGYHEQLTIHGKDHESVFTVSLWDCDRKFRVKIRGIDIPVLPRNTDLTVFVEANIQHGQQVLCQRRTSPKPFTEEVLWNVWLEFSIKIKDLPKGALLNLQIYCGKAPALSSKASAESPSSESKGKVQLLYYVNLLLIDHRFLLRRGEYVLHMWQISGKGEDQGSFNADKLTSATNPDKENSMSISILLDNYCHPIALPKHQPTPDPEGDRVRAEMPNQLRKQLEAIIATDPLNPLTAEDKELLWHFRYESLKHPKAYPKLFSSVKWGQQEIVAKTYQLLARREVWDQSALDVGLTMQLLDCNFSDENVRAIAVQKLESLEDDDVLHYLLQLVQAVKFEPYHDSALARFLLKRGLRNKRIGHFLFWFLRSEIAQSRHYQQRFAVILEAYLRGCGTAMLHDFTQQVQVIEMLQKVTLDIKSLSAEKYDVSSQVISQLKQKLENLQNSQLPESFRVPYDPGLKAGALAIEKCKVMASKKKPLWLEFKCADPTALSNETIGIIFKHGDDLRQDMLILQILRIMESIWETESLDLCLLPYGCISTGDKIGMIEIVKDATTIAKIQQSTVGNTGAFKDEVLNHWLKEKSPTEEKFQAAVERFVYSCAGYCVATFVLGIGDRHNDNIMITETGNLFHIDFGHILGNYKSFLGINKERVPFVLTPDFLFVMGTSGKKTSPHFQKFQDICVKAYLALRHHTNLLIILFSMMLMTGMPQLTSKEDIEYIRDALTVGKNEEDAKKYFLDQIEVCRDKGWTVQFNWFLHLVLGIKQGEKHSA
Put plainly: kinobeads assay, PI3K gamma. The experiment is classed as binding. Conditions: Jurkat cell lysate, read-out: Inhibition values (IC50) PI3Kg. Put shortly: as §1

Experiment [3] has as its target T5, DNA-dependent protein kinase (DNA-PK) (Homo sapiens, UniProt P78527).
T5 construct: Jurkat cells were homogenized in a Potter S homogenizer in lysis buffer; endogenous in cells; host or cells: Jurkat, clone E6-1 (ATCC TIB-152) lysate
The experiment can be described thus: kinobeads assay, DNA-PK. The format is binding. The note with it: Jurkat cell lysate, read-out: Inhibition values (IC50) DNA-PK. Put shortly: as §1

The next experiment has as its target T6, PI3K beta (PI3Kb) (Homo sapiens, UniProt P42338).
T6 construct: Jurkat cells were homogenized in a Potter S homogenizer in lysis buffer; endogenous in cells; host or cells: Jurkat, clone E6-1 (ATCC TIB-152) lysate
The experiment can be described thus: kinobeads assay, PI3K beta. The experiment is classed as binding. The note with it: Jurkat cell lysate, read-out: Inhibition values (IC50) PI3Kb. Put shortly:
as §1

Bounds are passed on as bounds.

11 molecules from patent publication US9175011B2, “Morpholino substituted urea or carbamate derivatives as MTOR inhibitors” (CELLZOME LIMITED, priority 2011, dated 2015) can be followed below.

T6 sequence (P42338 whole entry): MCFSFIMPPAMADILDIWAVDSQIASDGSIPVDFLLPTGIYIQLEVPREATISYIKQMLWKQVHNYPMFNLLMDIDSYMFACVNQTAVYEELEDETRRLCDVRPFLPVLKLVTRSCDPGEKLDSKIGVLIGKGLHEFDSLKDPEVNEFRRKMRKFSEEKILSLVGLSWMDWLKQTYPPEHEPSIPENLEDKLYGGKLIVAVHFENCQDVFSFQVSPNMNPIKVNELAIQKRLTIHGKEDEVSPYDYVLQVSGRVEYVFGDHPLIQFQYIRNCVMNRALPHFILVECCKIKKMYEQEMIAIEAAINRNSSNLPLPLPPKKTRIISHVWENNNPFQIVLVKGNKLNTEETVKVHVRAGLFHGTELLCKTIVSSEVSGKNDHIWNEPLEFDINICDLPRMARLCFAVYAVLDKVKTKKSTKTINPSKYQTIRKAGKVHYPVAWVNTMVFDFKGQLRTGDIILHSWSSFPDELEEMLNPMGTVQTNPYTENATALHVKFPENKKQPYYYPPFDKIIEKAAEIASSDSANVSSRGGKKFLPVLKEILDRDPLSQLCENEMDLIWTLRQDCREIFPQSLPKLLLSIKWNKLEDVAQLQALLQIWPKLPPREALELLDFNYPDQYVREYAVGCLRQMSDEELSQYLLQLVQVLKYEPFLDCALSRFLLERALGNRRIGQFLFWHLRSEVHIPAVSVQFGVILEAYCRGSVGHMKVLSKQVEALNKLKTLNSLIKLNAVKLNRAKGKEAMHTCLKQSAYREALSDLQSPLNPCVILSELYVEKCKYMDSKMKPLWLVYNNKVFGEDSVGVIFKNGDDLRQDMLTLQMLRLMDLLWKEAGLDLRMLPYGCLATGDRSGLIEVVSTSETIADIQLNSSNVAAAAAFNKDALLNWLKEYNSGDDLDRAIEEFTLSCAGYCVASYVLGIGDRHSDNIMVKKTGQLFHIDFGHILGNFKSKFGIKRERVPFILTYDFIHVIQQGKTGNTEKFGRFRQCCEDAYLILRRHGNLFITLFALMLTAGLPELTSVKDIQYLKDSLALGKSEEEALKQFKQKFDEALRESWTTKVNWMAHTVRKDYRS
T6 sequence (P27986 whole entry partner): as the sequence (P27986 whole entry partner) above

A word on the IC50: it is the point on the concentration scale where inhibition reaches its midpoint. As for `C[C@H]1COCCN1c1nc(-c2ccc(NC(=O)NC3CC3)cc2)nc(-c2ccccc2S(C)(=O)=O)n1` [Example 1, (S)-1-cyclopropyl-3-(4-(4-(3-methylmorpholino)-6-(2-(methylsulfonyl)phenyl)-1,3,5-triazin-2-yl)phenyl)urea], the IC50 is less than 0.1 µM in experiment [1]; less than 0.1 µM at mTOR; less than 0.1 µM in experiment [2]; more than 10 µM at PI3K delta (PI3Kd); more than 10 µM at PI3K alpha (PI3Kα); more than 10 µM at PI3K gamma (PI3Kg). Besides, the IC50 (in experiment [3]; at PI3K beta (PI3Kb)) was more than 10 µM throughout.
Turning to `C[C@H]1COCCN1c1nc(-c2ccc(NC(=O)NCCO)cc2)nc(-c2ccccc2S(C)(=O)=O)n1` [Example 4, (S)-1-(2-hydroxyethyl)-3-(4-(4-(3-methylmorpholino)-6-(2-(methylsulfonyl)phenyl)-1,3,5-triazin-2-yl)phenyl)urea], the IC50 in experiment [1] was less than 0.1 µM; at mTOR it was less than 0.1 µM; in experiment [2] it was less than 0.1 µM; on PI3K delta (PI3Kd), more than 10 µM; at PI3K alpha (PI3Kα), more than 10 µM; on PI3K gamma (PI3Kg), more than 10 µM. Also, the IC50 (in experiment [3]; at PI3K beta (PI3Kb)) was more than 10 µM throughout.
In the case of `C[C@H]1COCCN1c1nc(-c2ccc(NC(=O)Nc3ccc(CO)cc3)cc2)nc(-c2ccccc2S(C)(=O)=O)n1` [Example 25, (S)-1-(4-(hydroxymethyl)phenyl)-3-(4-(4-(3-methylmorpholino)-6-(2-(methylsulfonyl)phenyl)-1,3,5-triazin-2-yl)phenyl)urea], the IC50 in experiment [1] is less than 0.1 µM; on mTOR, 0.1 to 1 µM; on PI3K delta (PI3Kd), more than 10 µM; at PI3K alpha (PI3Kα) it was more than 10 µM; on PI3K gamma (PI3Kg), more than 10 µM; in experiment [3], more than 10 µM. The IC50 at PI3K beta (PI3Kb) was more than 10 µM.
For the molecule `C[C@H]1COCCN1c1nc(-c2ccc(NC(=O)NC3CC3)cc2)nc(-c2ccccc2S(=O)(=O)N2CCCC2)n1` [Example 26, (S)-1-cyclopropyl-3-(4-(4-(3-methylmorpholino)-6-(2-(pyrrolidin-1-ylsulfonyl)phenyl)-1,3,5-triazin-2-yl)phenyl)urea], the IC50 was less than 0.1 µM in experiment [1]; 0.1 to 1 µM on mTOR; more than 10 µM on PI3K delta (PI3Kd); more than 10 µM at PI3K alpha (PI3Kα); more than 10 µM at PI3K gamma (PI3Kg); more than 10 µM in experiment [3]. Moreover, at PI3K beta (PI3Kb), the IC50 was more than 10 µM.
For `C[C@H]1COCCN1c1nc(-c2ccc(NC(=O)NC3CCC3)cc2)nc(-c2ccccc2S(C)(=O)=O)n1` [Example 27, (S)-1-cyclobutyl-3-(4-(4-(3-methylmorpholino)-6-(2-(methylsulfonyl)phenyl)-1,3,5-triazin-2-yl)phenyl)urea], the IC50 is less than 0.1 µM in experiment [1]; 0.1 to 1 µM on mTOR; more than 10 µM at PI3K delta (PI3Kd); more than 10 µM on PI3K alpha (PI3Kα); more than 10 µM at PI3K gamma (PI3Kg); more than 10 µM in experiment [3]. Also, on PI3K beta (PI3Kb), the IC50 is more than 10 µM.
Regarding `C[C@H]1COCCN1c1nc(-c2ccc(NC(=O)NC3CC3(F)F)cc2)nc(-c2ccccc2S(C)(=O)=O)n1` (stereo partly drawn) [Example 29, 1-(2,2-difluorocyclopropyl)-3-(4-(4-((S)-3-methylmorpholino)-6-(2-(methylsulfonyl)phenyl)-1,3,5-triazin-2-yl)phenyl)urea], the IC50 was less than 0.1 µM in experiment [1]; 0.1 to 1 µM on mTOR; more than 10 µM on PI3K delta (PI3Kd); more than 10 µM at PI3K alpha (PI3Kα); more than 10 µM at PI3K gamma (PI3Kg); more than 10 µM in experiment [3]. Besides, on PI3K beta (PI3Kb), the IC50 was more than 10 µM.
Regarding `C[C@H]1COCCN1c1nc(-c2ccc(NC(=O)NCC(F)(F)F)cc2)nc(-c2ccccc2S(C)(=O)=O)n1` [Example 32, (S)-1-(4-(4-(3-methylmorpholino)-6-(2-(methylsulfonyl)phenyl)-1,3,5-triazin-2-yl)phenyl)-3-(2,2,2-trifluoroethyl)urea], the IC50 in experiment [1] is less than 0.1 µM; on mTOR it was 0.1 to 1 µM; on PI3K delta (PI3Kd), more than 10 µM; on PI3K alpha (PI3Kα), more than 10 µM; at PI3K gamma (PI3Kg), more than 10 µM; in experiment [3] it was more than 10 µM. For the same molecule, the IC50 on PI3K beta (PI3Kb) was more than 10 µM.
Take `C[C@H]1COCCN1c1nc(-c2ccc(NC(=O)NCC(O)C(F)(F)F)cc2)nc(-c2ccccc2S(C)(=O)=O)n1` (stereo partly drawn) [Example 33, 1-(4-(4-((S)-3-methylmorpholino)-6-(2-(methylsulfonyl)phenyl)-1,3,5-triazin-2-yl)phenyl)-3-(3,3,3-trifluoro-2-hydroxypropyl)urea]: the IC50 in experiment [1] was 0.1 to 1 µM; at mTOR, 0.1 to 1 µM; at PI3K delta (PI3Kd) it was more than 10 µM; at PI3K alpha (PI3Kα), more than 10 µM; on PI3K gamma (PI3Kg) it was more than 10 µM; in experiment [3] it was more than 10 µM. In addition, the IC50 on PI3K beta (PI3Kb) is more than 10 µM.
Regarding `C[C@H]1COCCN1c1nc(-c2ccc(NC(=O)NC3CCOC3)cc2)nc(-c2ccccc2S(C)(=O)=O)n1` (stereo partly drawn) [Example 34, 1-(4-(4-((S)-3-methylmorpholino)-6-(2-(methylsulfonyl)phenyl)-1,3,5-triazin-2-yl)phenyl)-3-(tetrahydrofuran-3-yl)urea], the IC50 in experiment [1] was 0.1 to 1 µM; on mTOR, 0.1 to 1 µM; on PI3K delta (PI3Kd) it was more than 10 µM; at PI3K alpha (PI3Kα) it was more than 10 µM; at PI3K gamma (PI3Kg), more than 10 µM; in experiment [3], more than 10 µM. In addition, the IC50 at PI3K beta (PI3Kb) is more than 10 µM.
As to `C[C@H]1COCCN1c1nc(-c2ccc(NC(=O)Nc3ccncc3)cc2)nc(-c2ccccc2S(C)(=O)=O)n1` [Example 35, (S)-1-(4-(4-(3-methylmorpholino)-6-(2-(methylsulfonyl)phenyl)-1,3,5-triazin-2-yl)phenyl)-3-(pyridin-4-yl)urea], the IC50 in experiment [1] is less than 0.1 µM; at mTOR it was 0.1 to 1 µM; at PI3K delta (PI3Kd), more than 10 µM; at PI3K alpha (PI3Kα) it was more than 10 µM; on PI3K gamma (PI3Kg), more than 10 µM; in experiment [3] it was more than 10 µM. Also, at PI3K beta (PI3Kb), the IC50 was more than 10 µM.
As to `CCC1COCCN1c1nc(-c2ccc(NC(=O)NC3CC3)cc2)nc(-c2ccccc2S(C)(=O)=O)n1` (stereo not shown) [Example 36, 1-cyclopropyl-3-(4-(4-(3-ethylmorpholino)-6-(2-(methylsulfonyl)phenyl)-1,3,5-triazin-2-yl)phenyl)urea], the IC50 in experiment [1] is less than 0.1 µM; on mTOR it was 0.1 to 1 µM; at PI3K delta (PI3Kd) it was more than 10 µM; at PI3K alpha (PI3Kα), more than 10 µM; at PI3K gamma (PI3Kg), more than 10 µM; in experiment [3], more than 10 µM. At PI3K beta (PI3Kb), the IC50 was more than 10 µM.
